The source of these data is ChEMBL document CHEMBL5291721, “A preclinical secondary pharmacology resource illuminates target-adverse drug reaction associations of marketed drugs” (Nat Commun, 2023).

Bounds are passed on as bounds.

Test [1] has as its target Prostaglandin G/H synthase 1 (Homo sapiens, UniProt P23219). Type of test: functional.
The next test addresses T1, Adenosine receptor A1 (Homo sapiens, UniProt P30542).
T1 sequence (P30542 whole entry): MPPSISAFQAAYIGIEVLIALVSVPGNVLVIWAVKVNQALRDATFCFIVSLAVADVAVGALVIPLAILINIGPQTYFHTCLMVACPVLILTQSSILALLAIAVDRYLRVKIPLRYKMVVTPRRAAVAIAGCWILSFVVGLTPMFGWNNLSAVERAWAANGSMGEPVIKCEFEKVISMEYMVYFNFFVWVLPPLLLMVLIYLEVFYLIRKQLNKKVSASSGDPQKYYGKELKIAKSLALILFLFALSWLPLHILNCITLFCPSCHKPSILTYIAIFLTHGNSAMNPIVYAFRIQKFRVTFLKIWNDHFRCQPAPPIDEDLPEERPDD

In another test the target is T2, Estrogen receptor (Homo sapiens, UniProt P03372).
T2 sequence (P03372 whole entry): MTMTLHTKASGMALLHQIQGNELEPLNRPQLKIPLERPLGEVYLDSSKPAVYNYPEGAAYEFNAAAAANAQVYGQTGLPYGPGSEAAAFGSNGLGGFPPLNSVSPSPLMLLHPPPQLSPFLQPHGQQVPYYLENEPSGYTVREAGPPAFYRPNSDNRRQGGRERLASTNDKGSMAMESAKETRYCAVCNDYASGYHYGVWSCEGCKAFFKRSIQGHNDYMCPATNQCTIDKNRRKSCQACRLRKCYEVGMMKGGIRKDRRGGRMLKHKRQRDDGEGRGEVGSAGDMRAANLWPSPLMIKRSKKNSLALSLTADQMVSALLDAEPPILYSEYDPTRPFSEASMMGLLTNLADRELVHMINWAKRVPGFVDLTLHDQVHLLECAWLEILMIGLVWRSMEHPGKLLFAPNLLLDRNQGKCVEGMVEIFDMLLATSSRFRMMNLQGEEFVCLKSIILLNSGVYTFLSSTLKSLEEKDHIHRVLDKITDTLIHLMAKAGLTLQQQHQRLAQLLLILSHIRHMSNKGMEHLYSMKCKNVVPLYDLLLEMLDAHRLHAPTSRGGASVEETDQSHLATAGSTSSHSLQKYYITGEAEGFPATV

Test [2] addresses Neuronal acetylcholine receptor subunit alpha-4 (Homo sapiens, UniProt P43681).
Test [3] has as its target T3, Muscarinic acetylcholine receptor M2 (Homo sapiens, UniProt P08172).
T3 sequence (P08172 whole entry): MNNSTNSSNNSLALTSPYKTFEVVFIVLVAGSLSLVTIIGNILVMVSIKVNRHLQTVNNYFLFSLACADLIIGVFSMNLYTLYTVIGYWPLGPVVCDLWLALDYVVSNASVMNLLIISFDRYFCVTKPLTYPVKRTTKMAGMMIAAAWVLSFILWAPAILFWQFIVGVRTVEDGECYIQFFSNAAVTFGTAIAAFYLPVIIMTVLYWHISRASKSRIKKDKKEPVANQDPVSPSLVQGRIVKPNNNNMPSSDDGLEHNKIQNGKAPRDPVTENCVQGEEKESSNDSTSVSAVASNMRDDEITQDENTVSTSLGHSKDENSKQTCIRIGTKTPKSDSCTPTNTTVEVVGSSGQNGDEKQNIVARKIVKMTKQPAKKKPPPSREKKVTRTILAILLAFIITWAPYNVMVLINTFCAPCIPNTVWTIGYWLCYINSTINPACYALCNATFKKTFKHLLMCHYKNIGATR
Type of test: functional, cell-based.

Test [4] addresses T4, Alpha-2B adrenergic receptor (Homo sapiens, UniProt P18089).
T4 sequence (P18089 whole entry): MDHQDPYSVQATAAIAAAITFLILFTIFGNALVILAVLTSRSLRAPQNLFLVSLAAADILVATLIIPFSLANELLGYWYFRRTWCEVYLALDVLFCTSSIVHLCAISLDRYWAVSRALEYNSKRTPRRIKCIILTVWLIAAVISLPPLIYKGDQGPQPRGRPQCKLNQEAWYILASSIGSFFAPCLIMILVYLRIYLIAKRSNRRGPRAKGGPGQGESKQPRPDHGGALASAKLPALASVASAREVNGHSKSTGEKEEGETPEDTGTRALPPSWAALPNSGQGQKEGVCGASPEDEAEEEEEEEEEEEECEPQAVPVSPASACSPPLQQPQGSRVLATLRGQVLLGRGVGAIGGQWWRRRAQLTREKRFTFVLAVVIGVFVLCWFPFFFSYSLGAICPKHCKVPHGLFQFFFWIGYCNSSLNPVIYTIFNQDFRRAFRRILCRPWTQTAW

For the next test, the target named is Vasopressin V2 receptor (Homo sapiens, UniProt P30518).
Test [5] deals with Voltage-dependent L-type calcium channel subunit alpha-1C (Rattus norvegicus, UniProt P22002). Type of test: functional.
Sequence of Voltage-dependent L-type calcium channel subunit alpha-1C (P22002 whole entry): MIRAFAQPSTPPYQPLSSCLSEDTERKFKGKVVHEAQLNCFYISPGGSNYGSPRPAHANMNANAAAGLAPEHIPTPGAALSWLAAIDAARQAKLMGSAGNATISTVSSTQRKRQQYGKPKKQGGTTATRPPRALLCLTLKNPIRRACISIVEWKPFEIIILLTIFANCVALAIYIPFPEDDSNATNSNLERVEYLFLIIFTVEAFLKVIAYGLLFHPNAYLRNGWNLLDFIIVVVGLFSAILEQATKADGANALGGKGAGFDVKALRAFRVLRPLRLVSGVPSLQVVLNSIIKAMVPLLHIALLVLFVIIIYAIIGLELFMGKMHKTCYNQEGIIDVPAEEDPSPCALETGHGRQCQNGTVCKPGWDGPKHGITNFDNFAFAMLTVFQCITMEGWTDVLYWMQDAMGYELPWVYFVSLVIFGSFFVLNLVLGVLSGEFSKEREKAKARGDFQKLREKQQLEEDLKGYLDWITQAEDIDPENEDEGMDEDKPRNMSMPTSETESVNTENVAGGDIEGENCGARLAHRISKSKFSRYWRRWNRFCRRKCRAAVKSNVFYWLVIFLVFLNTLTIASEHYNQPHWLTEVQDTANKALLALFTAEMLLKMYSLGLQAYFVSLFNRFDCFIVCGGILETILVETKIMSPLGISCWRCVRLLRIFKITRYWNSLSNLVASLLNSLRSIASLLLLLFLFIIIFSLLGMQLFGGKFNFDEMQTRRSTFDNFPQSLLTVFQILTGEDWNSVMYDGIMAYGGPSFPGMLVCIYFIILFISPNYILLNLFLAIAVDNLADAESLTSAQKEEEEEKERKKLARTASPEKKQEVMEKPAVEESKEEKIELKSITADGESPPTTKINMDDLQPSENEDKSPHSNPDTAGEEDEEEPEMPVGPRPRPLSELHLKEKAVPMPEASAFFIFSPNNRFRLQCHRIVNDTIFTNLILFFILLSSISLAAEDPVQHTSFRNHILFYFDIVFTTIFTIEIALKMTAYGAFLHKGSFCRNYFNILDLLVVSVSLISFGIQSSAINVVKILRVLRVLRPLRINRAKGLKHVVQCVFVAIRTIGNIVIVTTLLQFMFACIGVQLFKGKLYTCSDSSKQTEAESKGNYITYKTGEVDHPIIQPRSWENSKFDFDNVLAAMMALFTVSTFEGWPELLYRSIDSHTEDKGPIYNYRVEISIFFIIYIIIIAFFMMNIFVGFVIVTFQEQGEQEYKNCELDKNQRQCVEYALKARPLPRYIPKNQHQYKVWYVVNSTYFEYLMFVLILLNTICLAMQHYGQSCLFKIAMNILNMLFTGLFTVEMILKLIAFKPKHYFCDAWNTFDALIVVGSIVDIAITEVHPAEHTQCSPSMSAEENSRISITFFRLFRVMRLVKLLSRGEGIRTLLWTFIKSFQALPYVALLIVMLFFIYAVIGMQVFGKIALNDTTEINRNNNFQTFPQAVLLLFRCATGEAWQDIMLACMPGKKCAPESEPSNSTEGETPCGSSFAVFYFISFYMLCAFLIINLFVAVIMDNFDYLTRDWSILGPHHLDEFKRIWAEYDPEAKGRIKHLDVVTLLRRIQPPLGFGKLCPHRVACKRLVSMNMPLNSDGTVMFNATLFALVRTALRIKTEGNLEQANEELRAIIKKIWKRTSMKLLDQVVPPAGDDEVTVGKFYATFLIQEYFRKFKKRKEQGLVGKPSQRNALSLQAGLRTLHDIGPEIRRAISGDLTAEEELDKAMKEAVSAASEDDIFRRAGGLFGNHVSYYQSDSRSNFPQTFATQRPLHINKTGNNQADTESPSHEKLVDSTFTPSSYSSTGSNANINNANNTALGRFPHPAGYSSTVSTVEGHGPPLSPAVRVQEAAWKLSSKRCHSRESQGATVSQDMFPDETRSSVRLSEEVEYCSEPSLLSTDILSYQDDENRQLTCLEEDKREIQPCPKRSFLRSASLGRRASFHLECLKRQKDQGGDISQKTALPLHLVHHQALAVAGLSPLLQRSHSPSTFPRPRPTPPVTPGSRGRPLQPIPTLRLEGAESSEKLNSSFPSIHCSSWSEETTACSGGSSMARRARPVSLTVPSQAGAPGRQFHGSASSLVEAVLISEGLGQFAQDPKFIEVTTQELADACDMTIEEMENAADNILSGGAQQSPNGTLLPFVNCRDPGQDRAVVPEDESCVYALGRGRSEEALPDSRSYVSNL
The target in test [6] is T5, Alpha-2C adrenergic receptor (Homo sapiens, UniProt P18825).
T5 sequence (P18825 whole entry): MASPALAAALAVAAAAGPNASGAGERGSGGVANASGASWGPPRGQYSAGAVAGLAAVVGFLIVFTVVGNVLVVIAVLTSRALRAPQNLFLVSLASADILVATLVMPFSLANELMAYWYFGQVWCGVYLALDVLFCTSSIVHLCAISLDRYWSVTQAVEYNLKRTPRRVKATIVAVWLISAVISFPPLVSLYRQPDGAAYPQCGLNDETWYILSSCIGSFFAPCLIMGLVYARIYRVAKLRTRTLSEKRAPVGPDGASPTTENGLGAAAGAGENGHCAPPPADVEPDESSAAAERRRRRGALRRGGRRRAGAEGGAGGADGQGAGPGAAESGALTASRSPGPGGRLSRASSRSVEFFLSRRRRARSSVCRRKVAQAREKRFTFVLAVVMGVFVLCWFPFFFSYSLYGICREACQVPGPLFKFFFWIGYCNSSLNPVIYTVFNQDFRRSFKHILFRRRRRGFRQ
In kind it is functional.
Further: assay procedure not described here.

Sequence of Prostaglandin G/H synthase 1 (P23219 whole entry): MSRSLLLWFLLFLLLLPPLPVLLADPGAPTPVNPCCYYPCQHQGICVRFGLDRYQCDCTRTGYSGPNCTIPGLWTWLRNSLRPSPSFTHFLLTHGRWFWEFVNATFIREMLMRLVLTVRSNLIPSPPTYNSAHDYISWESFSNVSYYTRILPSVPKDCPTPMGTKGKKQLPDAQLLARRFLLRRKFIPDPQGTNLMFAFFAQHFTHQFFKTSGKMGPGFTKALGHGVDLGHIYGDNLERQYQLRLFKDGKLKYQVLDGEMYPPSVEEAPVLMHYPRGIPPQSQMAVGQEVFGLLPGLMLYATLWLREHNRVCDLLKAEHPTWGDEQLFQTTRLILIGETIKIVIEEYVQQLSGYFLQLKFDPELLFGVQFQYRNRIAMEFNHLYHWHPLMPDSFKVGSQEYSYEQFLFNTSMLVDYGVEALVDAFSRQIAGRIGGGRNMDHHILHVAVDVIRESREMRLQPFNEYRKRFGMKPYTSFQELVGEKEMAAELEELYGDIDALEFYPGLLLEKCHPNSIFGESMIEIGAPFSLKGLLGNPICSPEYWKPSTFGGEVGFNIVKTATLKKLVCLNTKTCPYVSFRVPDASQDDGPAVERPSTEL
Sequence of Neuronal acetylcholine receptor subunit alpha-4 (P43681 whole entry): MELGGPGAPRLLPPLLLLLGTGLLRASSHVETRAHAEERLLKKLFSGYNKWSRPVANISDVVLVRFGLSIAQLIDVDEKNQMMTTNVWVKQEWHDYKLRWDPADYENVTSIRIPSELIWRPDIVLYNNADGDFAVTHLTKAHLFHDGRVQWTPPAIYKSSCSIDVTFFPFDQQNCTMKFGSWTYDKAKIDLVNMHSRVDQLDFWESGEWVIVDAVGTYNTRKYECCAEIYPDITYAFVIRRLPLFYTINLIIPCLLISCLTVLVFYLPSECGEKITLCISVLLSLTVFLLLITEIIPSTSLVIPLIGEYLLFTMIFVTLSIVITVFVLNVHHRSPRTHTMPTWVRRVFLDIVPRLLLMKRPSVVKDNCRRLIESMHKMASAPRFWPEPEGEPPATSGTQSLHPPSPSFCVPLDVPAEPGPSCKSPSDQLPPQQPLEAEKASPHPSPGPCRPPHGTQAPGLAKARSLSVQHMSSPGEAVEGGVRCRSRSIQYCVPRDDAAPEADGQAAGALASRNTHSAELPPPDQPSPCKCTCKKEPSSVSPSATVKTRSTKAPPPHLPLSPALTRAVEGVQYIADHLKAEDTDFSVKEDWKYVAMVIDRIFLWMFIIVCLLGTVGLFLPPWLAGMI

By AC50 is commonly meant the concentration at which the activity in the assay is half-maximal. Turning to `CN(C)c1ccc(C(=C2C=CC(=[N+](C)C)C=C2)c2ccc(N(C)C)cc2)cc1` [GENTIAN VIOLET], the AC50 in test [1] was 20.8 µM.

On to `Nc1ccc(S(N)(=O)=O)cc1` [SULFANILAMIDE], for which the AC50 on Adenosine receptor A1 is more than 30 µM.

On to HYDROXOCOBALAMIN, for which the AC50 (on Estrogen receptor; in test [2]; in test [3]; in test [4]; at Vasopressin V2 receptor; in [5]) was more than 30 µM in each case. In addition, the AC50 in test [6] stood at 20 µM.
